Results: patent US11236380B2, “Methods for predicting kinase inhibitor resistance” (Research Development Foundation, priority 2017, dated 2022)

Assays:
[1] = test system: ABL kinase error-prone mutant library; test: ABL error-prone library screening by FACS in presence of inhibitor; type: cell-based, human; conditions: inhibitor-treated cultures (25 μM)
Procedure: 5×10^7 cells were washed with TBS+BSA then stained with anti-His6-FITC and anti-pY-PE for 30 minutes at 4° C. Cells were washed three times to remove unbound antibody. Wild-type ABL with and without inhibitor was used to determine the location of the sorting gates. PE+/FITC+ cells were sorted and re-sorted, then transferred to SD-UT medium for growth at 30° C. until dense, 1-2 days depending on number of cells collected (FIG. 1B).

[2] = test system: BTK (217-655) error-prone mutant library; test: BTK error-prone library screening by FACS in presence of inhibitor; type: cell-based, human
Procedure: A12 polymerase, an error-prone variant of KOD polymerase, was used for amplification to generate a pool of mutants. Vector was prepared by digestion with XhoI and XbaI. PCR product and digested vector were gel extracted and drop dialyzed in ddH2O on VSWP membranes for one hour. […] Library size was estimated by colony counts from dilution series of transformed cells plated on SD-UT agar plus 100 μg/mL G418. Sanger sequencing was carried out on 15 randomly selected clones, as well as high throughput sequencing (described below) on an aliquot of the entire sample.
3×10^8 cells were washed with TBS+BSA for each library and then stained with anti-His6-FITC and anti-pY-APC for 30 minutes at 4° C. Cells were washed three times to remove unbound antibody.

Structure (SMILES): Cc1ccc(C(=O)Nc2ccc(CN3CCN(C)CC3)c(C(F)(F)F)c2)cc1C#Cc1cnc2cccnn12 [Ponatinib]
- fraction of PE-positive cells ([1]; pre-sort 4 pool): 57.9%
- fraction of PE-positive cells ([1]; unsorted pool): 0.31%

Structure (SMILES): CC#CC(=O)N1CCC[C@H]1c1nc(-c2ccc(C(=O)Nc3ccccn3)cc2)c2c(N)nccn12 [Acalabrutinib]
- fraction of APC-positive cells ([2]; 1000 μM Acalabrutinib treated cultures, pre-sort round 3 pool): 23.8%
- fraction of APC-positive cells ([2]; 1000 μM Acalabrutinib treated cultures, unsorted pool): 1.63%

Structure (SMILES): C=CC(=O)N1CCC[C@@H](n2nc(-c3ccc(Oc4ccccc4)cc3)c3c(N)ncnc32)C1 [Ibrutinib]
- fraction of APC-positive cells ([2]; 400 nM Ibrutinib-treated cultures, pre-sort round 3): 40.60%
- fraction of APC-positive cells ([2]; 400 nM Ibrutinib-treated cultures, unsorted pool): 0.7%
